Source: patent US6218519A, “Compounds and methods for the selective treatment of cancer and bacterial infections” (Pro-Neuron, Inc., priority 1996, dated 2001)
Where a name gives a salt, the structure may show the parent alone. Read-outs that look alike come from different tables or passages of the source.

Key:
carcinoma cells = settings: glucuronide versus parent epirubicin; cited from earlier work
A-375 (human melanoma) = assay: Growth inhibition studies, crystal violet staining, 72 hr; type: cell-based; settings: A-375, 72 h
Text: Growth Inhibition Studies. […] cell lines: A-375 (human melanoma), LSl174T (colon carcinoma), ME 180 (cervical carcinoma), SK-OV-3 (ovarian carcinoma), and BT-474 (breast carcinoma) were routinely grown in […] Minimal Essential Medium (MEM, Gibco Inc.) containing 10% fetal bovine serum albumin (Atlanta Biologics). Cells were passaged weekly by trypsinization (Gibco) followed by plating at reduced density (50,000 cells/ml). They were routinely tested and found to be free of mycoplasma contamination. Cells were harvested by trypsinization and plated in 96 well plates at a density of 5,000 per well in 100 μl of MEM culture media. Cells were allowed to adhere by incubation for 24 hr at 37° C. in humidified 5% CO2. The wells containing log-phase cells were treated with complete MEM containing serial dilutions of N-[(4"RS-4"-Ethoxy-4"-β-D-glucopyranurongloxy)butyl]daunorubicin (sodium salt) 10b at concentrations ranging from 10^-5 to 10^-14 M Each well also contained a 50-fold unit excess of β-glucuronidase (i.e., 50 units of enzyme per βmole of substrate). Control reactions were run with 10b in the absence of β-glucuronidase, daunomycin alone, and daunomycin in the presence β-glucuronidase. […] Cell-bound dye was solubilized with Sorenson's Buffer (0.1 M sodium citrate, pH 4.2-ethanol, 1:1, v/v) and the wells were read on an ELISA microplate autoreader at 540 nm. […]

[1] = biological target: β-Glucuronidase (E. Coli) (EC 3. 2. 1. 31) (Escherichia coli, UniProt P05804); assay: in vitro; settings: beta-glucuronidase, phosphate buffer, pH 7.4, half-life for the disappearance of 10b
Sequence of β-Glucuronidase (E. Coli) (EC 3. 2. 1. 31) (P05804 whole entry): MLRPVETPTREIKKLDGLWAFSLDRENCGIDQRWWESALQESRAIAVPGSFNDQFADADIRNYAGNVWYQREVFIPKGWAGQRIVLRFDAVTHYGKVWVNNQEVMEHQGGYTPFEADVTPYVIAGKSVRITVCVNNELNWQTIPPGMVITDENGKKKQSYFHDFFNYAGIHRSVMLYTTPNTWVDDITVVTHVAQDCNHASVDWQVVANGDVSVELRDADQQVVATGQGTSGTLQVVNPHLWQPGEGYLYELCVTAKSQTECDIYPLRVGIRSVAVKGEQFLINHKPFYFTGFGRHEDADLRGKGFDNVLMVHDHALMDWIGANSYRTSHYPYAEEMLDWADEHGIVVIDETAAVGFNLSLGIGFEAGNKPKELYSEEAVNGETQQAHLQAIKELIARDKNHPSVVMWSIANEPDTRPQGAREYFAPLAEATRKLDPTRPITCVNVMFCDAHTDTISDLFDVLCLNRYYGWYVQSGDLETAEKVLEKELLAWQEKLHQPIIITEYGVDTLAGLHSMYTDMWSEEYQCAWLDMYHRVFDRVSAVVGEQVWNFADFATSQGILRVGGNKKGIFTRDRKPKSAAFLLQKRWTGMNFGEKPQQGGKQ

| SMILES | detoxification of the parent drug (carcinoma cells) | IC50 (A-375 (human melanoma); read-out: IC50 (drug concentration that inhibited cell growth by 50%), A375 cell line, in the absence of β-glucuronidase, 72 hr) [ng/mL] | IC50 (A-375 (human melanoma); read-out: IC50 (drug concentration that inhibited cell growth by 50%), A375 cell line, in the presence of glucuronidase (50 units of enzyme per µmole of substrate), 72 hr) [ng/mL] | half-life at 100 µM [1] [h] | half-life at 100 µM ([1]; 10-fold enzyme excess (10 units of enzyme per µmol of substrate), 0.05 M potassium phosphate buffer pH 7.4) [h] | half-life at 100 µM ([1]; 20-fold enzyme excess (20 units of enzyme per µmol of substrate), 0.05 M potassium phosphate buffer pH 7.4) [h] |
| --- | --- | --- | --- | --- | --- | --- |
| COc1cccc2c1C(=O)c1c(O)c3c(c(O)c1C2=O)C[C@@](O)(C(=O)CO)C[C@@H]3O[C@H]1C[C@H](N)[C@@H](O[C@@H]2O[C@H](C(=O)O)[C@@H](O)[C@H](O)[C@H]2O)[C@H](C)O1 [glucuronide of epirubicin] | up to 1000 fold |  |  |  |  |  |
| CCOC(CCCN[C@H]1C[C@H](O[C@H]2C[C@](O)(C(C)=O)Cc3c(O)c4c(c(O)c32)C(=O)c2c(OC)cccc2C4=O)O[C@@H](C)[C@H]1O)O[C@@H]1O[C@H](C(=O)O)[C@@H](O)[C@H](O)[C@H]1O (stereo partly drawn) [Compound 10b, N-[(4"RS)-4"-Ethoxy-4"-(β-D-glucopyranuronyloxy)butyl]daunorubicin (Sodium salt)] |  | 200 | 0.02 | 8.1 | 6.9 | 2 |
